In patent publication US6653300B2, “Pyrazole compounds useful as protein kinase inhibitors” (Vertex Pharmaceuticals Incorporated, priority 2000, dated 2003):
pKi: −log10 of the molar value. Values joined by “and” are separate entries in the source; they are usually repeats but may differ in a detail not shown here. Identical values can stand only once.

Tests used:
[1] = target: T1, Aurora-2 (Homo sapiens, UniProt O14965); assay: Ki determination for the inhibition of Aurora-2 (coupled enzyme assay); format: biochemical; settings: 70 nM Aurora-2, 30° C.
T1 sequence (O14965 1-403): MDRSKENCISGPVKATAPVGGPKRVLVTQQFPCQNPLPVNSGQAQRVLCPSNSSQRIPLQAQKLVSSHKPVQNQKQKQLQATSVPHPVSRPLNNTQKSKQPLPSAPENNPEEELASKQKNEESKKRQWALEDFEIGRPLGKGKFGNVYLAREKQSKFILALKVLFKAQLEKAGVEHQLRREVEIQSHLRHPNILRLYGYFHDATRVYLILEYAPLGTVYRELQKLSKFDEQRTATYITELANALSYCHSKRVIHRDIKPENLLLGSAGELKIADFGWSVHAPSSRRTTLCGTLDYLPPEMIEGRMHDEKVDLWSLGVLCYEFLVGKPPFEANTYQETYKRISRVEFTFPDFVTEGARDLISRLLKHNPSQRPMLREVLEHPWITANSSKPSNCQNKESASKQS
Procedure: Compounds were screened in the following manner for their ability to inhibit Aurora-2 using a standard coupled enzyme assay (Fox et al (1998) Protein Sci 7, 2249).
To an assay stock buffer solution containing 0.1M HEPES 7.5, 10 mM MgCl2, 1 mM DTT, 25 mM NaCl, 2.5 mM phosphoenolpyruvate, […], 30 mg/ml pyruvate kinase, 10 mg/ml lactate dehydrogenase, […], and 800 μM peptide (LRRASLG, American Peptide, Sunnyvale, Calif.) was added a DMSO solution of a compound of the present invention to a final concentration of 30 μM. The resulting mixture was incubated at 30° C. for 10 min. The reaction was initiated by the addition of 10 μL of Aurora-2 stock solution to give a final concentration of 70 nM in the assay. The rates of reaction were obtained by monitoring absorbance at 340 nm over a 5 minute read time at 30° C. using a BioRad Ultramark plate reader (Hercules, Calif.). The Ki values were determined from the rate data as a function of inhibitor concentration.

[2] = target: T2, GSK-3β (AA 1-420) (Homo sapiens, UniProt P49841); assay: Ki determination for the inhibition of GSK-3 (coupled enzyme system); format: biochemical; settings: 20 μM ATP, 20 nM GSK-3β, 30° C.
T2 construct: GSK-3β (AA 1-420)
Method in brief: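 GSK-3β (AA 1-420, 20 nM) was run in a pyruvate kinase/LDH-coupled NADH assay in 100 mM HEPES pH 7.5, 10 mM MgCl2, 25 mM NaCl, 1 mM DTT, 1.5% DMSO, with 300 μM phosphopeptide substrate. Compound (0.002–30 μM) was preincubated 10 min at 30° C, then 20 μM ATP was added.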

T2 sequence (P49841 whole entry, the tested form may be a part): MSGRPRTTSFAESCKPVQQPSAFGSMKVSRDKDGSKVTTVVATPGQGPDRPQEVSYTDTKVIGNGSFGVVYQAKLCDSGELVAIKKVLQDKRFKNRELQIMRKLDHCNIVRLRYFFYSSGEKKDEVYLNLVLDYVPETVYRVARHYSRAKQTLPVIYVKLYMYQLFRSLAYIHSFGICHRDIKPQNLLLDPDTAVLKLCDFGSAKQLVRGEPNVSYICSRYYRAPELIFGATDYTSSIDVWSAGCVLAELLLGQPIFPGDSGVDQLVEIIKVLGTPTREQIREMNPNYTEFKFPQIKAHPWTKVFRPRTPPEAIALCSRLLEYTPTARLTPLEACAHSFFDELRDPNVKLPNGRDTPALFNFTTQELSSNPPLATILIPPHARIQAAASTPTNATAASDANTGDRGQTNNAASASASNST

Compound	melting point	pKi [1]	pKi [2]
Cc1cc(Nc2nc(Sc3cccc(Br)c3)nc3ccccc23)n[nH]1 [IIa-47, [2-(3-Bromophenylsulfanyl)-quinazolin-4-yl]-(5-methyl-2H-pyrazol-3-yl)-amine]	280 to 281 °C	> 7.00	> 7.00
Cc1cc(Nc2nc(Sc3ccc(NS(C)(=O)=O)cc3)nc3c(O)cccc23)n[nH]1 [IIa-69, [8-Hydroxy-2-(4-methylsulfonylamino-phenylsulfanyl)-quinazolin-4-yl]-(5-methyl-2H-pyrazol-3-yl)-amine]	291 to 293 °C	> 7.00	6.00 to 7.00
COc1cccc2c(Nc3cc(C4CC4)[nH]n3)nc(Sc3ccc(NC(C)=O)cc3)nc12 [IIa-72, [2-(4-Acetamido-phenylsulfanyl)-8-methoxy-quinazolin-4-yl]-(5-cyclopropyl-2H-pyrazol-3-yl)-amine]	265 to 268 °C	> 7.00	5.15 to 6.00
Cc1cc(Nc2nc(Sc3ccc(NC(=O)CN(C)C(=O)OC(C)(C)C)cc3)nc3ccccc23)n[nH]1 [IIa-76, (2-{4-[2-(tert-Butoxycarbonyl-methyl-amino)-acetylamino]-phenylsulfanyl}-quinazolin-4-yl)-(5-methyl-2H-pyrazol-3-yl)-amine]	228 to 229 °C (dec.)	> 7.00	5.15 to 6.00
Cc1cc(Nc2nc(NC3CCCCC3)nc3ccccc23)n[nH]1 [IIc-6, (2-Cyclohexylamino-quinazolin-4-yl)-(5-methyl-2H-pyrazol-3-yl)-amine]	280 °C (dec.)	> 7.00	> 7.00 and 6.00 to 7.00
Cc1cc(Nc2nc(Nc3ccc4c(c3)OCCO4)nc3ccccc23)n[nH]1 [IIc-7, [2-(2,3-Dihydrobenzo[1,4]dioxin-6-ylamino)-quinazolin-4-yl]-(5-methyl-2H-pyrazol-3-yl)-amine]	> 250 °C	> 7.00	6.00 to 7.00
Cc1cc(Nc2nc(Nc3cccc(CO)c3)nc3ccccc23)n[nH]1 [IIc-16, [2-(3-Hydroxymethylphenylamino)-quinazolin-4-yl]-(5-methyl-2H-pyrazol-3-yl)-amine]	> 250 °C	> 7.00	6.00 to 7.00
Cc1cc(Nc2nc(Nc3cccc(O)c3)nc3ccccc23)n[nH]1 [IIc-17, [2-(3-Hydroxyphenylamino)-quinazolin-4-yl]-(5-methyl-2H-pyrazol-3-yl)-amine]	> 250 °C	> 7.00	6.00 to 7.00
COc1ccc(Nc2nc(Nc3cc(C4CC4)[nH]n3)c3ccccc3n2)cn1 [IIc-20, (5-Cyclopropyl-2H-pyrazol-3-yl)-[2-(6-methoxypyridin-3-ylamino)-quinazolin-4-yl]-amine]	120 °C	> 7.00	> 7.00
CCCc1ccc(Nc2nc(Nc3cc(C4CC4)n[nH]3)c3ccccc3n2)cc1 [IIc-26, (5-Cyclopropyl-2H-pyrazol-3-yl)-[2-(4-propylphenylamino)-quinazolin-4-yl]-amine]	255 to 256 °C	> 7.00	6.00 to 7.00
O=C(O)COc1ccc(Nc2nc(Nc3cc(C4CC4)[nH]n3)c3ccccc3n2)cc1 [IIc-30, [2-(4-Carboxymethoxyphenylamino)-quinazolin-4-yl]-(5-cyclopropyl-2H-pyrazol-3-yl)-amine]	> 250 °C	> 7.00	> 7.00
O=C(O)Cc1ccc(Nc2nc(Nc3cc(C4CC4)[nH]n3)c3ccccc3n2)cc1 [IIc-36, [2-(4-Carboxymethylphenylamino)-quinazolin-4-yl]-(5-cyclopropyl-2H-pyrazol-3-yl)-amine]	> 210 °C (dec.)	> 7.00	> 7.00
c1ccc(CCCNc2nc(Nc3cc(C4CC4)[nH]n3)c3ccccc3n2)cc1 [IIc-47, (5-Cyclopropyl-2H-pyrazol-3-yl)-[2-(3-phenylprop-1-ylamino)-quinazolin-4-yl]-amine]	189 °C	> 7.00	6.00 to 7.00

Continued, values first:

melting point	pKi [1]	pKi [2]	Compound
285 to 287 °C	> 7.00	5.15 to 6.00	Cc1cc(Nc2nc(Sc3ccc(NC(=O)C(C)C)cc3)nc3ccccc23)n[nH]1 [IIa-49, [2-(4-Isobutyrylamino-phenylsulfanyl)-quinazolin-4-yl]-(5-methyl-2H-pyrazol-3-yl)-amine]
235 to 238 °C	> 7.00	> 7.00	CS(=O)(=O)Nc1ccc(Sc2nc(Nc3cc(C4CC4)[nH]n3)c3ccccc3n2)cc1 [IIa-61, (5-Cycloprpyl-2H-pyrazol-3-yl)-[2-(4-methylsulfonylamino-phenylsulfanyl)-quinazolin-4-yl]-amine]
> 300 °C	> 7.00	6.00 to 7.00	Cc1cc(Nc2nc(Sc3ccc(N)cc3)nc3ccccc23)n[nH]1 [IIa-62, [2-(4-Amino-phenylsulfanyl)-quinazolin-4-yl]-(5-methyl-2H-pyrazol-3-yl)-amine]
240 to 243 °C	> 7.00	5.15 to 6.00	Cc1cc(Nc2nc(Sc3ccc(NC(=O)CCCN4CCOCC4)cc3)nc3ccccc23)n[nH]1 [IIa-64, (5-Methyl-2H-pyrazol-3-yl)-{2-[4-(4-morpholin-4-yl-butyrylamino)-phenylsulfanyl]-quinazolin-4-yl}-amine]
275 to 277 °C	> 7.00	6.00 to 7.00	COc1cccc2c(Nc3cc(C)[nH]n3)nc(Sc3ccc(NS(C)(=O)=O)cc3)nc12 [IIa-66, [8-Methoxy-2-(4-methylsulfonylamino-phenylsulfanyl)-quinazolin-4-yl]-(5-methyl-2H-pyrazol-3-yl)-amine]
192 to 193 °C	6.00 to 7.00	5.15 to 6.00	Cc1cc(Nc2nc(Sc3ccc(C(=O)NCCN(C)C)cc3)nc3ccccc23)n[nH]1 [IIa-67, {2-[4-(2-Dimethylamino-ethylcarbamoyl)-phenylsulfanyl]-quinazolin-4-yl}-(5-methyl-2H-pyrazol-3-yl)-amine]
277 to 278 °C	> 7.00	6.00 to 7.00	COc1ccc(Oc2nc(Nc3cc(C)[nH]n3)c3ccccc3n2)cc1OC [IIb-7, [2-(3,4-Dimethoxyphenoxy)-quinazolin-4-yl]-(5-methyl-2N-pyrazol-3-yl)-amine]
296 to 299 °C (dec.)	> 7.00	> 7.00	Cc1cc(Nc2nc(Oc3ccc4c(c3)OCO4)nc3ccccc23)n[nH]1 [IIb-8, [2-(Benzo[1,3]dioxol-5-yloxy)-quinazolin-4-yl]-(5-methyl-2H-pyrazol-3-yl)-amine]
225 to 227 °C	> 7.00	6.00 to 7.00	Cc1cc(Nc2nc(NCc3ccccc3)nc3ccccc23)n[nH]1 [IIc-5, (2-Benzylamino-quinazolin-4-yl)-(5-methyl-2H-pyrazol-3-yl)-amine]
> 250 °C	> 7.00	> 7.00	Cc1cc(Nc2nc(Nc3ccc(Cl)cc3)nc3ccccc23)n[nH]1 [IIc-12, [2-(4-Chlorophenylamino)-quinazolin-4-yl]-(5-methyl-2H-pyrazol-3-yl)-amine]
222 °C	6.00 to 7.00	6.00 to 7.00	Cc1cc(Nc2nc(Nc3ccccc3CCO)nc3ccccc23)n[nH]1 [IIc-14, {2-[2-(2-Hydroxyethyl)phenylamino]-quinazolin-4-yl}-(5-methyl-2H-pyrazol-3-yl)-amine]
> 250 °C	> 7.00	6.00 to 7.00	c1ccc2c(Nc3cc(C4CC4)[nH]n3)nc(NCCC3CCCCC3)nc2c1 [IIc-29, [2-(2-Cyclohexylethylamino)-quinazolin-4-yl]-(5-cyclopropyl-2H-pyrazol-3-yl)-amine]
298 to 302 °C	> 7.00	6.00 to 7.00	O=C(O)c1cccc(Nc2nc(Nc3cc(C4CC4)[nH]n3)c3ccccc3n2)c1 [IIc-40, [2-(3-Carboxyphenylamino)-quinazolin-4-yl]-(5-cyclopropyl-2H-pyrazol-3-yl)-amine]
251 °C	> 7.00	6.00 to 7.00	CC(=O)Nc1ccc(Nc2nc(Nc3cc(C)[nH]n3)c3ccccc3n2)cc1C [IIc-48, [2-(4-acetamido-3-methylphenylamino)-quinazolin-4-yl]-(5-methyl-2H-pyrazol-3-yl)-amine]
